Data published in patent publication US8969516B2, “Method of hydrolysis of peptide bond” (priority 2006, dated 2015).

Assay: MALDI-TOF screening of Ni^2+ dependent hydrolysis in a combinatorial peptide library
Type: physicochemical
Conditions: Ni^2+ 2 mM, pH 8.2, 10 mM Tris, score=24/tm
Summary of the method: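 Sublibraries of Ac-Gly-Ala-Ser/Thr-X-His-Z-Lys-Phe-Leu-NH2, randomized at Z and fixed at X, were hydrolyzed at 1 mM total peptide with 2 mM Ni2+ in 10 mM Tris, pH 8.2, at 37 °C or 45 °C. Cleavage was scored visually in MALDI-TOF spectra at 2, 4, 6 and 8 h.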

[1] = CH3CO-Gly-Ala-Thr-X-His-Z-Lys-Phe-Leu-NH2 library, 37° C.
[2] = CH3CO-Gly-Ala-Thr-X-His-Z-Lys-Phe-Leu-NH2 library, 45° C.
[3] = CH3CO-Gly-Ala-Ser-X-His-Z-Lys-Phe-Leu-NH2 library, 37° C.
[4] = CH3CO-Gly-Ala-Ser-X-His-Z-Lys-Phe-Leu-NH2 library, 45° C.

| Substance | hydrolysis score from MALDI-TOF screening [1] | hydrolysis score from MALDI-TOF screening [2] | hydrolysis score from MALDI-TOF screening [3] | hydrolysis score from MALDI-TOF screening [4] |
| --- | --- | --- | --- | --- |
| Ac-GATQHSKFL-NH2 [TQHS] | 0 (a score of 0 if no trace of the product of hydrolysis was seen after 8 hours of incubation) | 0 (a score of 0 if no trace of the product of hydrolysis was seen after 8 hours of incubation) |  |  |
| Ac-GATLHLKFL-NH2 [TLHL] | 0 (a score of 0 if no trace of the product of hydrolysis was seen after 8 hours of incubation) | 0 (a score of 0 if no trace of the product of hydrolysis was seen after 8 hours of incubation) |  |  |
| Ac-GATGHNKFL-NH2 [TGHN] | 0 (a score of 0 if no trace of the product of hydrolysis was seen after 8 hours of incubation) | 0 (a score of 0 if no trace of the product of hydrolysis was seen after 8 hours of incubation) |  |  |
| Ac-GASNHFKFL-NH2 [SNHF] |  |  | 3 (a score of 3 for detection at 8 hours) | 3 (a score of 3 for detection at 8 hours) |
| Ac-GATSHLKFL-NH2 [TSHL] | 0 (a score of 0 if no trace of the product of hydrolysis was seen after 8 hours of incubation) | 0 (a score of 0 if no trace of the product of hydrolysis was seen after 8 hours of incubation) |  |  |
| Ac-GASTHKKFL-NH2 [STHK] |  |  | 3 (a score of 3 for detection at 8 hours) | 6 (a score of 6 for detection at 4 hours) |
| Ac-GATVHIKFL-NH2 [TVHI] | 0 (a score of 0 if no trace of the product of hydrolysis was seen after 8 hours of incubation) | 0 (a score of 0 if no trace of the product of hydrolysis was seen after 8 hours of incubation) |  |  |
| Ac-GATYHTKFL-NH2 [TYHT] | 0 (a score of 0 if no trace of the product of hydrolysis was seen after 8 hours of incubation) | 0 (a score of 0 if no trace of the product of hydrolysis was seen after 8 hours of incubation) |  |  |
| Ac-GATAHPKFL-NH2 [TAHP] | 0 (a score of 0 if no trace of the product of hydrolysis was seen after 8 hours of incubation) | 0 (a score of 0 if no trace of the product of hydrolysis was seen after 8 hours of incubation) |  |  |
| Ac-GASWHEKFL-NH2 [SWHE] |  |  | 0 (a score of 0 if no trace of the product of hydrolysis was seen after 8 hours of incubation) | 0 (a score of 0 if no trace of the product of hydrolysis was seen after 8 hours of incubation) |
| Ac-GASHHPKFL-NH2 [SHHP] |  |  | 0 (a score of 0 if no trace of the product of hydrolysis was seen after 8 hours of incubation) | 0 (a score of 0 if no trace of the product of hydrolysis was seen after 8 hours of incubation) |
| Ac-GATMHVKFL-NH2 [TMHV] | 0 (a score of 0 if no trace of the product of hydrolysis was seen after 8 hours of incubation) | 0 (a score of 0 if no trace of the product of hydrolysis was seen after 8 hours of incubation) |  |  |
| Ac-GATHHRKFL-NH2 [THHR] | 6 (a score of 6 for detection at 4 hours) | 6 (a score of 6 for detection at 4 hours) |  |  |
| Ac-GASRHVKFL-NH2 [SRHV] |  |  | 6 (a score of 6 for detection at 4 hours) | 12 (a score of 12, if it was seen to be partially hydrolysed at 2 hours) |
| Ac-GATTHHKFL-NH2 [TTHH] | 0 (a score of 0 if no trace of the product of hydrolysis was seen after 8 hours of incubation) | 0 (a score of 0 if no trace of the product of hydrolysis was seen after 8 hours of incubation) |  |  |
| Ac-GATPHRKFL-NH2 [TPHR] |  | 0 (a score of 0 if no trace of the product of hydrolysis was seen after 8 hours of incubation) |  |  |
| Ac-GASQHHKFL-NH2 [SQHH] |  |  | 0 (a score of 0 if no trace of the product of hydrolysis was seen after 8 hours of incubation) | 0 (a score of 0 if no trace of the product of hydrolysis was seen after 8 hours of incubation) |
| Ac-GATIHAKFL-NH2 [TIHA] | 0 (a score of 0 if no trace of the product of hydrolysis was seen after 8 hours of incubation) | 0 (a score of 0 if no trace of the product of hydrolysis was seen after 8 hours of incubation) |  |  |
| Ac-GASHHTKFL-NH2 [SHHT] |  |  | 0 (a score of 0 if no trace of the product of hydrolysis was seen after 8 hours of incubation) | 0 (a score of 0 if no trace of the product of hydrolysis was seen after 8 hours of incubation) |

| Substance | hydrolysis score from MALDI-TOF screening [1] | hydrolysis score from MALDI-TOF screening [2] | hydrolysis score from MALDI-TOF screening [3] | hydrolysis score from MALDI-TOF screening [4] |
| --- | --- | --- | --- | --- |
| Ac-GATHHKKFL-NH2 [THHK] | 6 (a score of 6 for detection at 4 hours) | 12 (a score of 12, if it was seen to be partially hydrolysed at 2 hours) |  |  |
| Ac-GATSHEKFL-NH2 [TSHE] | 0 (a score of 0 if no trace of the product of hydrolysis was seen after 8 hours of incubation) | 0 (a score of 0 if no trace of the product of hydrolysis was seen after 8 hours of incubation) |  |  |
| Ac-GASQHDKFL-NH2 [SQHD] |  |  | 0 (a score of 0 if no trace of the product of hydrolysis was seen after 8 hours of incubation) | 0 (a score of 0 if no trace of the product of hydrolysis was seen after 8 hours of incubation) |
| Ac-GATSHAKFL-NH2 [TSHA] | 0 (a score of 0 if no trace of the product of hydrolysis was seen after 8 hours of incubation) | 0 (a score of 0 if no trace of the product of hydrolysis was seen after 8 hours of incubation) |  |  |
| Ac-GATIHFKFL-NH2 [TIHF] | 0 (a score of 0 if no trace of the product of hydrolysis was seen after 8 hours of incubation) | 0 (a score of 0 if no trace of the product of hydrolysis was seen after 8 hours of incubation) |  |  |
| Ac-GATHHDKFL-NH2 [THHD] | 0 (a score of 0 if no trace of the product of hydrolysis was seen after 8 hours of incubation) | 0 (a score of 0 if no trace of the product of hydrolysis was seen after 8 hours of incubation) |  |  |
| Ac-GATNHLKFL-NH2 [TNHL] | 0 (a score of 0 if no trace of the product of hydrolysis was seen after 8 hours of incubation) | 0 (a score of 0 if no trace of the product of hydrolysis was seen after 8 hours of incubation) |  |  |
| Ac-GATRHRKFL-NH2 [TRHR] | 4 (a score of 4 for detection at 6 hours) | 6 (a score of 6 for detection at 4 hours) |  |  |
| Ac-GATWHVKFL-NH2 [TWHV] | 0 (a score of 0 if no trace of the product of hydrolysis was seen after 8 hours of incubation) | 0 (a score of 0 if no trace of the product of hydrolysis was seen after 8 hours of incubation) |  |  |
| Ac-GATMHYKFL-NH2 [TMHY] | 0 (a score of 0 if no trace of the product of hydrolysis was seen after 8 hours of incubation) | 0 (a score of 0 if no trace of the product of hydrolysis was seen after 8 hours of incubation) |  |  |
| Ac-GATYHLKFL-NH2 [TYHL] | 0 (a score of 0 if no trace of the product of hydrolysis was seen after 8 hours of incubation) | 0 (a score of 0 if no trace of the product of hydrolysis was seen after 8 hours of incubation) |  |  |
| Ac-GATIHKKFL-NH2 [TIHK] | 0 (a score of 0 if no trace of the product of hydrolysis was seen after 8 hours of incubation) | 3 (a score of 3 for detection at 8 hours) |  |  |
| Ac-GATVHMKFL-NH2 [TVHM] | 0 (a score of 0 if no trace of the product of hydrolysis was seen after 8 hours of incubation) | 0 (a score of 0 if no trace of the product of hydrolysis was seen after 8 hours of incubation) |  |  |
| Ac-GATGHPKFL-NH2 [TGHP] | 0 (a score of 0 if no trace of the product of hydrolysis was seen after 8 hours of incubation) | 0 (a score of 0 if no trace of the product of hydrolysis was seen after 8 hours of incubation) |  |  |
| Ac-GASLHPKFL-NH2 [SLHP] |  |  | 0 (a score of 0 if no trace of the product of hydrolysis was seen after 8 hours of incubation) | 0 (a score of 0 if no trace of the product of hydrolysis was seen after 8 hours of incubation) |
| Ac-GATNHSKFL-NH2 [TNHS] | 0 (a score of 0 if no trace of the product of hydrolysis was seen after 8 hours of incubation) | 0 (a score of 0 if no trace of the product of hydrolysis was seen after 8 hours of incubation) |  |  |
| Ac-GASGHLKFL-NH2 [SGHL] |  |  | 0 (a score of 0 if no trace of the product of hydrolysis was seen after 8 hours of incubation) | 3 (a score of 3 for detection at 8 hours) |
| Ac-GATTHGKFL-NH2 [TTHG] | 0 (a score of 0 if no trace of the product of hydrolysis was seen after 8 hours of incubation) | 0 (a score of 0 if no trace of the product of hydrolysis was seen after 8 hours of incubation) |  |  |
